Test results from patent US7141397B2, “Method of preparing a guanosine-group compound and an intermediate thereof” (Yuki Gosei Kogyo Co., Ltd., priority 2000, dated 2006).

Assay: Solubility of guanine and glyoxal-guanine in water (HPLC of liquid layer)
Format: physicochemical
Details: for solubility to water: general statement, no temperature given; for Solubility at each temperature: water, stirred 1 hour
Procedure: An excess amount of each compound was suspended in water, stirred for 1 hour at each temperature and left for a while. The liquid layer was analyzed with HPLC equipped with a UV detector, under the conditions described below.
Conditions of the HPLC analysis:
Column: Superiorex ODS (manufactured by Shiseido)
Eluent: 0.1 M ammonium dihydrogenphosphate solution: methanol=97:3 (v/v)

solubility to water | Solubility at each temperature (30° C.) | Solubility at each temperature (40° C.) | Solubility at each temperature (50° C.) | Solubility at each temperature (60° C.) | Compound
soluble to water | 200 mg/kg | 275 mg/kg | 330 mg/kg | 440 mg/kg | O=c1c2nc[nH]c2nc2n1C(O)C(O)N2 (stereo not shown) [Glyoxal-guanine, 6,7-dihydro-6,7-dihydroxyimidazo[1,2-a]purine-9(3H)-one]
does not exceed a few ppm | ≤ 2 or mg/kg | ≤ 2 or mg/kg | 2 mg/kg | 2 mg/kg | Nc1nc2nc[nH]c2c(=O)[nH]1 [Guanine, guanine]
